Data as given in ChEMBL document CHEMBL4699440, “Comprehensive review on the anti-bacterial activity of 1,2,3-triazole hybrids” (Eur J Med Chem, 2019).
Converted amounts (≈) assume the structure as drawn.

What was measured:
Format in all cases: functional
[1] = test system: Pseudomonas fluorescens; test: Antibacterial activity against Pseudomonas fluorescens NCIM 2173 incubated for 24 hrs
[2] = test system: Bacillus cereus; test: Antibacterial activity against Bacillus cereus ATCC 6630 incubated for 24 hrs
[3] = test system: Curvularia lunata; test: Antifungal activity against Curvularia lunata NCIM 1131 incubated for 48 hrs
[4] = test system: Aspergillus niger; test: Antifungal activity against Aspergillus niger NCIM 1196 incubated for 48 hrs
[5] = test system: Micrococcus luteus; test: Antibacterial activity against Micrococcus Luteus ATCC 398 incubated for 24 hrs
[6] = test system: Staphylococcus aureus; test: Antibacterial activity against Staphylococcus aureus ATCC 29737 incubated for 24 hrs
[7] = test system: Penicillium chrysogenum; test: Antifungal activity against Penicillium chrysogenum NCIM 723 incubated for 48 hrs
[8] = test system: Escherichia coli; test: Antibacterial activity against Escherichia coli NCIM 2256 incubated for 24 hrs
[9] = test system: Sphingomonas paucimobilis; test: Antibacterial activity against Flavobacterium devorans ATCC 10829 incubated for 24 hrs
[10] = test system: Staphylococcus aureus; test: Antibacterial activity against methicillin-resistant Staphylococcus aureus ATCC 25923 by CLSI-based broth dilution method
[11] = test system: Escherichia coli; test: Antibacterial activity against ESBL-producing Escherichia coli ATCC 25925 by CLSI-based broth dilution method
[12] = test system: Pseudomonas aeruginosa; test: Antibacterial activity against Pseudomonas aeruginosa ATCC 27853 by CLSI-based broth dilution method
[13] = test system: Staphylococcus aureus; test: Antibacterial activity against methicillin-sensitive Staphylococcus aureus by CLSI-based broth dilution method
[14] = test system: Klebsiella pneumoniae; test: Antibacterial activity against Klebsiella pneumoniae ATCC 27736 by CLSI-based broth dilution method
[15] = test system: Enterococcus faecium; test: Antibacterial activity against vancomycin-resistant Enterococcus faecium by CLSI-based broth dilution method; settings: time 24 hrs
[16] = test system: Escherichia coli; test: Antibacterial activity against Escherichia coli by agar dilution method
[17] = test system: Bacillus cereus; test: Antibacterial activity against Bacillus cereus by agar dilution method
[18] = test system: Staphylococcus aureus; test: Antibacterial activity against Staphylococcus aureus by agar dilution method
[19] = test system: Pseudomonas aeruginosa; test: Antibacterial activity against Pseudomonas aeruginosa by agar dilution method
[20] = test system: Staphylococcus aureus; test: Antibacterial activity against Staphylococcus aureus MTCC 96 incubated for 24 hrs by macrodilution tube method
[21] = test system: Bacillus cereus; test: Antibacterial activity against Bacillus cereus MTCC 430 incubated for 24 hrs by macrodilution tube method

## O=c1cc(OCc2cn(Cc3ccc(Br)cc3)nn2)c2ccccc2o1
[1]
  MIC: 2 µg/mL (≈ 4.85 µM)
[2]
  MIC: 2 µg/mL (≈ 4.85 µM)
[3]
  MIC: 2 µg/mL (≈ 4.85 µM)
[4]
  MIC: 2 µg/mL (≈ 4.85 µM)
[5]
  MIC: 2 µg/mL (≈ 4.85 µM)
[6]
  MIC: 2 µg/mL (≈ 4.85 µM)
[7]
  MIC: 2 µg/mL (≈ 4.85 µM)
[8]
  MIC: 2 µg/mL (≈ 4.85 µM)
[9]
  MIC: 2 µg/mL (≈ 4.85 µM)

## N=C(N)c1ccc2[nH]c(-c3ccc(OCc4cn(-c5ccc(Cl)cc5)nn4)cc3)nc2c1
[10]
  MIC: 16 µg/mL (≈ 36 µM)
[11]
  MIC: 16 µg/mL (≈ 36 µM)
[12]
  MIC: 16 µg/mL (≈ 36 µM)
[13]
  MIC: 16 µg/mL (≈ 36 µM)
[14]
  MIC: 16 µg/mL (≈ 36 µM)
[15]
  MIC: 16 µg/mL (≈ 36 µM)

## c1ccc(Cn2cc(COc3ccc(-c4nc5cc(C6=NCCN6)ccc5[nH]4)cc3)nn2)cc1
[10]
  MIC: 8 µg/mL (≈ 17.8 µM)
[11]
  MIC: 8 µg/mL (≈ 17.8 µM)
[12]
  MIC: 8 µg/mL (≈ 17.8 µM)
[13]
  MIC: 8 µg/mL (≈ 17.8 µM)
[14]
  MIC: 8 µg/mL (≈ 17.8 µM)
[15]
  MIC: 8 µg/mL (≈ 17.8 µM)

## Clc1ccc(COC(Cn2ccnc2)c2ccc(Cl)cc2Cl)c(Cl)c1 (centres undefined) [MICONAZOLE]
[3]
  MIC: 16 µg/mL (≈ 38.4 µM)
[4]
  MIC: 16 µg/mL (≈ 38.4 µM)
[7]
  MIC: 16 µg/mL (≈ 38.4 µM)

## c1ccc(-n2cc(COc3ccc(-c4nc5cc(C6=NCCN6)ccc5[nH]4)cc3)nn2)cc1
[10]
  MIC: 8 µg/mL (≈ 18.4 µM)
[11]
  MIC: 8 µg/mL (≈ 18.4 µM)
[12]
  MIC: 8 µg/mL (≈ 18.4 µM)
[13]
  MIC: 8 µg/mL (≈ 18.4 µM)
[14]
  MIC: 8 µg/mL (≈ 18.4 µM)
[15]
  MIC: 8 µg/mL (≈ 18.4 µM)

## O=C(N/N=C/c1cn(-c2ccccc2)nc1-c1cccs1)c1cccc(-n2cc(-c3ccccc3)nn2)c1
[16]
  MIC: 2 µg/mL (≈ 3.88 µM)
[17]
  MIC: 2 µg/mL (≈ 3.88 µM)
[18]
  MIC: 2 µg/mL (≈ 3.88 µM)
[19]
  MIC: 2 µg/mL (≈ 3.88 µM)

## N=C(N)c1ccc2[nH]c(-c3ccc(OCc4cn(-c5ccccc5)nn4)cc3)nc2c1
[10]
  MIC: 16 µg/mL (≈ 39.1 µM)
[11]
  MIC: 16 µg/mL (≈ 39.1 µM)
[12]
  MIC: 16 µg/mL (≈ 39.1 µM)
[13]
  MIC: 16 µg/mL (≈ 39.1 µM)
[14]
  MIC: 16 µg/mL (≈ 39.1 µM)
[15]
  MIC: 16 µg/mL (≈ 39.1 µM)

## COc1ccc(-c2nn(-c3ccccc3)cc2/C=N/NC(=O)c2cccc(-n3cc(-c4ccccc4)nn3)c2)cc1OC
[16]
  MIC: 2 µg/mL (≈ 3.51 µM)
[17]
  MIC: 2 µg/mL (≈ 3.51 µM)
[18]
  MIC: 2 µg/mL (≈ 3.51 µM)
[19]
  MIC: 2 µg/mL (≈ 3.51 µM)

## O=C(N/N=C/c1cn(-c2ccccc2)nc1-c1ccc(F)cc1)c1cccc(-n2cc(-c3ccccc3)nn2)c1
[16]
  MIC: 2 µg/mL (≈ 3.79 µM)
[17]
  MIC: 2 µg/mL (≈ 3.79 µM)
[18]
  MIC: 2 µg/mL (≈ 3.79 µM)
[19]
  MIC: 2 µg/mL (≈ 3.79 µM)

## NC[C@H]1O[C@H](O[C@H]2[C@H](O)[C@@H](O[C@H]3O[C@H](CO)[C@@H](O)[C@H](N)[C@H]3O)[C@H](N)C[C@@H]2N)[C@H](O)[C@@H](O)[C@@H]1O [KANAMYCIN]
[1]
  MIC: 2 µg/mL (≈ 4.13 µM)
[2]
  MIC: 2 µg/mL (≈ 4.13 µM)
[5]
  MIC: 2 µg/mL (≈ 4.13 µM)
[6]
  MIC: 2 µg/mL (≈ 4.13 µM)
[8]
  MIC: 2 µg/mL (≈ 4.13 µM)
[9]
  MIC: 2 µg/mL (≈ 4.13 µM)

## Clc1ccc(-n2cc(COc3ccc(-c4nc5cc(C6=NCCN6)ccc5[nH]4)cc3)nn2)cc1
[10]
  MIC: 8 µg/mL (≈ 17 µM)
[11]
  MIC: 8 µg/mL (≈ 17 µM)
[12]
  MIC: 8 µg/mL (≈ 17 µM)
[13]
  MIC: 8 µg/mL (≈ 17 µM)
[14]
  MIC: 8 µg/mL (≈ 17 µM)
[15]
  MIC: 8 µg/mL (≈ 17 µM)

## COc1ccc(C2C3=C(CC(C)(C)CC3=O)Oc3cc4ccc(OCc5cn(-c6ccnc7cc(Cl)ccc67)nn5)cc4cc32)cc1 (centres undefined)
[20]
  MIC: 16 µg/mL (≈ 24.9 µM)
[21]
  MIC: 16 µg/mL (≈ 24.9 µM)

## Cc1cc(OCc2cn(Cc3ccc(Cl)cc3)nn2)cc2oc(=O)ccc12
[1]
  MIC: 2 µg/mL (≈ 5.24 µM)
[2]
  MIC: 2 µg/mL (≈ 5.24 µM)
[3]
  MIC: 2 µg/mL (≈ 5.24 µM)
[4]
  MIC: 2 µg/mL (≈ 5.24 µM)
[5]
  MIC: 2 µg/mL (≈ 5.24 µM)
[6]
  MIC: 2 µg/mL (≈ 5.24 µM)
[7]
  MIC: 2 µg/mL (≈ 5.24 µM)
[8]
  MIC: 2 µg/mL (≈ 5.24 µM)
[9]
  MIC: 2 µg/mL (≈ 5.24 µM)

## O=c1cc(OCc2cn(Cc3cccc(Cl)c3)nn2)c2ccccc2o1
[1]
  MIC: 2 µg/mL (≈ 5.44 µM)
[2]
  MIC: 2 µg/mL (≈ 5.44 µM)
[3]
  MIC: 2 µg/mL (≈ 5.44 µM)
[4]
  MIC: 2 µg/mL (≈ 5.44 µM)
[5]
  MIC: 2 µg/mL (≈ 5.44 µM)
[6]
  MIC: 2 µg/mL (≈ 5.44 µM)
[7]
  MIC: 2 µg/mL (≈ 5.44 µM)
[8]
  MIC: 2 µg/mL (≈ 5.44 µM)
[9]
  MIC: 2 µg/mL (≈ 5.44 µM)

## COc1ccc(C2C3=C(CC(C)(C)CC3=O)Oc3cc4ccc(OCc5cn(-c6ccnc7cc(Cl)ccc67)nn5)cc4cc32)cc1OC (centres undefined)
[20]
  MIC: 16 µg/mL (≈ 23.8 µM)
[21]
  MIC: 16 µg/mL (≈ 23.8 µM)

## COc1ccc(-n2cc(COc3ccc(-c4nc5cc(C(=N)N)ccc5[nH]4)cc3)nn2)cc1
[10]
  MIC: 16 µg/mL (≈ 36.4 µM)
[11]
  MIC: 16 µg/mL (≈ 36.4 µM)
[12]
  MIC: 16 µg/mL (≈ 36.4 µM)
[13]
  MIC: 16 µg/mL (≈ 36.4 µM)
[14]
  MIC: 16 µg/mL (≈ 36.4 µM)
[15]
  MIC: 16 µg/mL (≈ 36.4 µM)

## O=C(N/N=C/c1cn(-c2ccccc2)nc1-c1cccc(O)c1)c1cccc(-n2cc(-c3ccccc3)nn2)c1
[16]
  MIC: 2 µg/mL (≈ 3.81 µM)
[17]
  MIC: 2 µg/mL (≈ 3.81 µM)
[18]
  MIC: 2 µg/mL (≈ 3.81 µM)
[19]
  MIC: 2 µg/mL (≈ 3.81 µM)

## CC1(C)CC(=O)C2=C(C1)Oc1cc3ccc(OCc4cn(-c5ccnc6cc(Cl)ccc56)nn4)cc3cc1C2c1cccc2ccccc12 (centres undefined)
[20]
  MIC: 16 µg/mL (≈ 24.1 µM)
[21]
  MIC: 16 µg/mL (≈ 24.1 µM)

## COc1ccc(-n2cc(COc3ccc(-c4nc5cc(C(=N)NC(C)C)ccc5[nH]4)cc3)nn2)cc1
[10]
  MIC: 8 µg/mL (≈ 16.6 µM)
[11]
  MIC: 8 µg/mL (≈ 16.6 µM)
[12]
  MIC: 8 µg/mL (≈ 16.6 µM)
[13]
  MIC: 8 µg/mL (≈ 16.6 µM)
[14]
  MIC: 8 µg/mL (≈ 16.6 µM)
[15]
  MIC: 8 µg/mL (≈ 16.6 µM)

## O=C(N/N=C/c1cn(-c2ccccc2)nc1-c1ccc([N+](=O)[O-])cc1)c1cccc(-n2cc(-c3ccccc3)nn2)c1
[16]
  MIC: 2 µg/mL (≈ 3.61 µM)
[17]
  MIC: 2 µg/mL (≈ 3.61 µM)
[18]
  MIC: 2 µg/mL (≈ 3.61 µM)
[19]
  MIC: 2 µg/mL (≈ 3.61 µM)
